From patent publication US20200108032A1, “USE OF ISOFERULIC ACID, ISOFERULIC ACID-CONTAINING TRADITIONAL CHINESE MEDICINE EXTRACT AND CIMICIFUGAE RHIZOMA” (BEIJING DITAN HOSPITAL, CAPITAL MEDICAL UNIVERSITY, priority 2017, published 2020) come the findings set out here.

The assay deals with CIA arthritis mice. Kind of assay: Arthritis index of CIA arthritis mice. The assay is classed as in vivo, C57BL/6 mice. The note with it: for arthritis index: MEAN ± SEM. The text has this: Test materials: bovine type II collagen acetic acid solution and complete Freund's adjuvant were purchased from Chondrex company; isoferulic acid was purchased from Tianjin Yifang Technology Co., Ltd.
Animals: C57BL/6 mice, purchased from Beijing Huafukang Biotechnology Co., Ltd.
Grouping: 24 C57BL/6 mice, male, 18-20 g, after 1 day of adaptive breeding, the mice were randomly divided into 4 groups: normal control group and CIA model group, 5 mice in each group; Cimicifugae rhizoma group and isoferulic acid group, 7 mice in each group.
Model preparation and drug administration: Prepared a 2 mg/ml bovine type II collagen acetic acid solution, took 2 ml of the overnighted bovine type II collagen acetic acid solution, mixed thoroughly with 2 ml of complete Freund's adjuvant and emulsified (operation on ice), and prepared the bovine type II collagen emulsion having a final concentration of 1 mg/ml. Each mouse was injected intradermally with 0.1 ml of the emulsion. 21 days after the first immunization, mice were given a second immunization for 21 days, starting from day 0 of the second immunization, the CIA model group was given 250 μL of distilled water by gavage and the Cimicifugae rhizoma group was given 250 μL of the Cimicifugae rhizoma decoction obtained in Preparation Example 1. The crude drug dose was 2 g/kg; 250 μL of an aqueous solution of isoferulic acid was administered by gavage in the isoferulic acid group at a dose of 5 mg/kg, administered once every 3 days, and bred continuously for 21 days.
Animals were scored using the joint scoring method (grades 0-4), and the assessment was based on the degree of joint redness and swelling and joint swelling and deformation. 0 point: no redness and swelling; 1 point: redness but no swelling of the joint; 2 points: mild redness and swelling of the joint; 3 points: moderate redness and swelling of the joint; 4 points: severe redness and swelling of the joint accompanied by dysfunction of the joint. Each limb was scored separately, and the sum of the scores of each limb is the arthritis index of the mouse. The highest score is 16 points. The higher the score, the more severe the joint symptoms.

`COc1ccc(C=CC(=O)O)cc1O` [isoferulic acid, 3-hydroxy-4-methoxycinnamic acid] showed an arthritis index (Day 0 after second immunization, gavage once every 3 days (Cimicifugae rhizoma 2 g/kg, isoferulic acid 5 mg/kg), max 16 points) of 0 ± 0; an arthritis index (Day 3 after second immunization) of 0.43 ± 0.28; an arthritis index (Day 6 after second immunization) of 1.0 ± 0.61; an arthritis index (Day 9 after second immunization) of 3.14 ± 0.77; an arthritis index (Day 12 after second immunization) of 5.14 ± 0.98; an arthritis index (Day 15 after second immunization, CIA group 8.43) of 4.43. Further, the arthritis index (Day 15 after second immunization, CIA group 8.43, listed as Isoferulic acid) worked out at 5.71 ± 0.83. Further, the “swelling of paw joints (FIG. 3)” value (pictures of front and hind paw joints, versus CIA arthritis mice) was “significantly reduced”.
